According to patent publication US20210278408A1, “METHODS OF TREATMENT OF CANCER WITH SUBSTITUTED PYRROLE AND PYRAZOLE COMPOUNDS AND DIAGNOSIS OF CANCERS SUSCEPTIBLE TO TREATMENT WITH SUBSTITUTED PYRROLE AND PYRAZOLE COMPOUNDS” (Bantam Pharmaceutical, LLC, priority 2018, published 2021):
Where two headings read alike, the source gives them in different places.

Test system: 407 cancer cell lines
Experiment: Cell viability of cancer cell lines (IC50), CellTiter-Glo Viability Assay, 96 h
Assay type: cell-based
Settings: for IC50: read-out: Absolute IC50
Procedure: Viability was determined by using the 50% inhibitory concentration (IC50) as determined with the CellTiter-Glo® Viability Assay (Promega).
Experiments were initiated by first thawing and equilibrating the CellTiter-Glo® Buffer to room temperature. The lyophilized CellTiter-Glo® Substrate was also equilibrated to room temperature. The lyophilized substrate was reconstituted with the CellTiter-Glo® buffer to form the CellTiter-Glo® Reagent.
Cells were harvested during the logarithmic growth period, counted, and the cell concentration adjusted to 4.44×10^4 cells/mL using culture medium.
Cells were allowed to grow overnight and the following day, the TO reading was obtained by adding 10 μL culture medium to each well of Plate A. The plate was allowed to equilibrate at room temperature for thirty minutes, after which 50 μL CellTiter-Glo® reagent was added to each well. The contents were mixed for 5 min on an orbital shaker to induce cell lysis. Plates were incubated for 20 minutes to stabilize the luminescent signal and the TO luminescence recorded.
Test plate B was incubated for 96 h in the humidified incubator at 37° C. with 5% CO2.
Following the incubation, the plate was equilibrated at room temperature for thirty minutes. CellTiter-Glo® (50 μL) was added to each well of the plate and contents mixed for five minutes on an orbital shaker to induce cell lysis. The luminescent signal was allowed to stabilize at room temperature for 20 minutes and the luminescence recorded.
IC50 (EC50) was calculated using a dose-response curve, fitted using a nonlinear regression model with a sigmoidal dose response. Survival rate was calculated using the formula:
The Surviving rate (%)=(LumTest article−LumMedium control)/(LumNon-treated−LumMedium control)×100%.
Absolute IC50 (EC50) was calculated according to the dose-response curve generated by the statistical software (GraphPad Prism 5.0).

Cc1nn(-c2nc(-c3ccc(C(F)(F)F)cc3)c(SC(C)C)s2)c(C(=O)O)c1-c1cccc(F)c1 [Compound A197, 4-(3-fluorophenyl)-1-(5-(isopropylthio)-4-(4-(trifluoromethyl)phenyl)thiazol-2-yl)-3-methyl-1H-pyrazole-5-carboxylic acid]
IC50 (Homo sapiens, TT, 96 h, TT cells, 96 h): 2070 nM | IC50 (Homo sapiens, Toledo, 96 h, Toledo cells, 96 h): 1450 nM | IC50 (Homo sapiens, U2OS, 96 h, U-2 OS cells, 96 h): 16800 nM | IC50 (Homo sapiens, U2932, 96 h, U-2932 cells, 96 h): 460 nM | IC50 (Homo sapiens, U-87 MG, 96 h, U-87 MG cells, 96 h): 24900 nM | IC50 (Homo sapiens, U-251, 96 h, U251 cells, 96 h): 280 nM | IC50 (Homo sapiens, U-937, 96 h, U-937 cells, 96 h): 410 nM | IC50 (Homo sapiens, UACC-812, 96 h, UACC-812 cells, 96 h): > 30000 nM | IC50 (Homo sapiens, UMUC3, 96 h, UM-UC-3 cells, 96 h): 930 nM | IC50 (Homo sapiens, UO-31, 96 h, UO.31 cells, 96 h): > 30000 nM | IC50 (Homo sapiens, WM 266-4, 96 h, WM-266-4 cells, 96 h): > 30000 nM | IC50 (Homo sapiens, WSU-NHL, 96 h, WSU-NHL cells, 96 h): 480 nM | IC50 (Homo sapiens, WSUDLCL2, 96 h, WSU-DLCL2 cells, 96 h): 680 nM | IC50 (Homo sapiens, Y79, 96 h, Y-79 cells, 96 h): > 30000 nM | IC50 (Homo sapiens, Z-138, Z-138): 1500 nM | IC50 (Homo sapiens, ZR-75-1, ZR-75-1): 7810 nM | IC50 (Homo sapiens, ZR-75-30, 96 h): > 30000 nM | % inhibition at top conc. (HuCCT1, 96 h): 51.19% | % inhibition at top conc. (Ishikawa, 96 h): 82.51% | IC50 (JAR): 670 nM | % inhibition at top conc. (JEG-3 cells, 96 h): 52.54% | IC50 (JHH1, 96 h, JHH-1 cells, 96 h): > 30000 nM | IC50 (JHH7, 96 h, JHH-7 cells, 96 h): 660 nM | IC50 (JHH-4, 96 h, JHH-4 cells, 96 h): 1500 nM | IC50 (JVM13, JVM-13): 390 nM | % inhibition at top conc. (KATO III, 96 h): 45.89% | IC50 (KPL4, KPL-4): 250 nM | IC50 (L-82, L-82): 3780 nM | % inhibition at top conc. (LNCaP clone FGC, 96 h): 76.07% | IC50 (Li-7, Li-7): 850 nM | % inhibition at top conc. (MDA-MB-436, 96 h): 54.72% | % inhibition at top conc. (MKN1 cells, 96 h): 53.97% | % inhibition at top conc. (MKN45, 96 h): 14.51% | % inhibition at top conc. (MKN74 cells, 96 h): 52.90% | IC50 (MM.1R): 1190 nM | IC50 (MOLM16, 96 h, MOLM-16 cells, 96 h): 350 nM | IC50 (MS751, 96 h, MS751 cells, 96 h): > 30000 nM | IC50 (NAMALWA CSN/70): 490 nM | % inhibition at top conc. (NCI-H69 cells, 96 h): 21.37% | % inhibition at top conc. (NCI-H82, 96 h): 92.52% | % inhibition at top conc. (NCI-H146 cells, 96 h): 37.67% | % inhibition at top conc. (NCI-H209 cells, 96 h): 45.11% | % inhibition at top conc. (NCI-H292 cells, 96 h): 54.61% | IC50 (NCI-H322, 96 h, NCI-H322 cells, 96 h): 290 nM | % inhibition at top conc. (NCI-H358 cells, 96 h): 68.44% | % inhibition at top conc. (NCI-H446 cells, 96 h): 51.21% | % inhibition at top conc. (NCI-H460 cells, 96 h): 49.03% | % inhibition at top conc. (NCI-H520 cells, 96 h): 76.45% | % inhibition at top conc. (NCI-H526 cells, 96 h): 44.57% | % inhibition at top conc. (NCI-H727 cells, 96 h): 35.60% | IC50 (NCI-H820, 96 h, NCI-H820 cells, 96 h): 350 nM | % inhibition at top conc. (NCI-H820 cells, 96 h): 78.69% | % inhibition at top conc. (NCI-H1048 cells, 96 h): 66.49% | % inhibition at top conc. (NCI-H1155 cells, 96 h): 79.14% | % inhibition at top conc. (NCI-H1299 cells, 96 h): 83.01% | IC50 (NCI-H1435, NCI-H1435): 390 nM | IC50 (NCI-H1568, 96 h, NCI-H1568 cells, 96 h): 270 nM | % inhibition at top conc. (NCI-H1648 cells, 96 h): 57.33% | % inhibition at top conc. (NCI-H1651 cells, 96 h): 67.37% | IC50 (NCI-H1688, NCI-H1688): > 30000 nM | % inhibition at top conc. (NCI-H1703 cells, 96 h): 73.10% | IC50 (NCI-H1781, 96 h, NCI-H1781 cells, 96 h): > 30000 nM | % inhibition at top conc. (NCI-H1792 cells, 96 h): 68.85% | IC50 (NCI-H1915, 96 h, NCI-H1915 cells, 96 h): > 30000 nM | % inhibition at top conc. (NCI-H1975 cells, 96 h): 25.02% | % inhibition at top conc. (NCI-H1993 cells, 96 h): 78.76% | % inhibition at top conc. (NCI-H2087 cells, 96 h): 50.14% | % inhibition at top conc. (NCI-H2170 cells, 96 h): 75.97% | % inhibition at top conc. (NCI-H2228 cells, 96 h): 54.12% | % inhibition at top conc. (NCI-N87, 96 h): 54.19% | IC50 (NK-92MI): 6580 nM | IC50 (NOZ): 710 nM | % inhibition at top conc. (NUGC-3 cells, 96 h): 63.39% | % inhibition at top conc. (NUGC-4 cells, 96 h): 62.77% | IC50 (OCUG-1, OCUG-1): 1250 nM | IC50 (OCUM1, 96 h, OCUM-1 cells, 96 h): > 30000 nM | % inhibition at top conc. (OCUM-1 cells, 96 h): 19.71% | % inhibition at top conc. (OCUM-2D cells, 96 h): 65.33% | % inhibition at top conc. (OCUM-2M cells, 96 h): 66.13% | % inhibition at top conc. (OE19, 96 h): 53.21% | IC50 (OSC19, 96 h, OSC-19 cells, 96 h): > 30000 nM | % inhibition at top conc. (OVCAR-3 cells, 96 h): 46.65% | % inhibition at top conc. (OVCAR-8 cells, 96 h): 75.04% | IC50 (OZ): > 30000 nM | % inhibition at top conc. (PC-9 cells, 96 h): 52.79% | IC50 (PEER): 1870 nM | IC50 (PL45, PL45): 1190 nM | IC50 (RD-ES): > 30000 nM | % inhibition at top conc. (RPMI-2650 cells, 96 h): 52.41% | % inhibition at top conc. (RT4 cells, 96 h): 49.68% | % inhibition at top conc. (SCC-4, 96 h): 26.22% | % inhibition at top conc. (SCH cells, 96 h): 53.08% | IC50 (SF763, SF-763): 760 nM | % inhibition at top conc. (SK-MEL-5, 96 h): 25.67% | % inhibition at top conc. (SK-MEL-28, 96 h): 13.20% | % inhibition at top conc. (SK-OV-3 cells, 96 h): 34.62% | IC50 (SNU620, 96 h, SNU-620 cells, 96 h): > 30000 nM | IC50 (SNU668, 96 h, SNU-668 cells, 96 h): > 30000 nM | % inhibition at top conc. (SNU-1 cells, 96 h): 74.67% | % inhibition at top conc. (SNU-5, 96 h): 54.08% | IC50 (SNU-81): > 30000 nM | IC50 (SNU-216, 96 h, SNU-216 cells, 96 h): > 30000 nM | IC50 (SNU-368): > 30000 nM | IC50 (SNU-484, 96 h, SNU-484 cells, 96 h): > 30000 nM | % inhibition at top conc. (SNU-484 cells, 96 h): 45.94% | IC50 (SNU-601, 96 h, SNU-601 cells, 96 h): 490 nM | % inhibition at top conc. (SNU-601 cells, 96 h): 67.28% | % inhibition at top conc. (SNU-638 cells, 96 h): 56.77% | % inhibition at top conc. (SNU-719 cells, 96 h): 32.64% | IC50 (SNU-739, SNU-739): 20900 nM | % inhibition at top conc. (SNU-761 cells, 96 h): 59.03% | % inhibition at top conc. (SNU-2535 cells, 96 h): 46.87% | IC50 (SNU-C2A): 580 nM | IC50 (SW579, 96 h, SW579 cells, 96 h): > 30000 nM | % inhibition at top conc. (SW684 cells, 96 h): 4.22% | % inhibition at top conc. (SW948 cells, 96 h): 46.17% | IC50 (SW1271, SW1271): > 30000 nM | IC50 (U266B1): > 30000 nM | % inhibition at top conc. (UACC-812 cells, 96 h): 20.05% | % inhibition at top conc. (YCC-1 cells, 96 h): 29.02% | % inhibition at top conc. (YCC-6 cells, 96 h): 56.86% | % inhibition at top conc. (YCC-10, 96 h): 38.86% | IC50 (YCC-11, 96 h, YCC-11 cells, 96 h): > 30000 nM | % inhibition at top conc. (YCC-11 cells, 96 h): 48.65% | % inhibition at top conc. (ZR-75-30, 96 h): 10.01%
